Results reported in patent publication US20260272865A1, “HYDROXYPHENYL PROPANOATE COMPOUNDS FOR TUMOUR IMMUNOTHERAPY, COMPOSITIONS AND USES THEREOF” (UTI LIMITED PARTNERSHIP, priority 2023, published 2026).
“Also recorded” adds a separate entry of the source.

Experiments:
B16.F10 melanoma tumours = experiment: Subcutaneous B16.F10 melanoma in IMDM-CR mice: overall survival; assay type: in vivo, mouse
M3-9-M^OVA tumours = experiment: Orthotopic M3-9-M^OVA rhabdomyosarcoma in IMDM-CR mice: immune surveillance, overall survival; assay type: in vivo, mouse
M3-9-M tumours = experiment: Orthotopic M3-9-M rhabdomyosarcoma: tumour immune surveillance, growth, overall survival
Description: Tumour cells were orthotopically implanted into 6-8 week old mice. […] For experiments with rhabdomyosarcoma models, mice were orthotopically implanted with 1.5×10^5 M3-9-M or M3-9-M^OVA cells in 50 μL of PBS into the right-behind leg gastrocnemius muscle using an insulin syringe. RMS tumour volume was calculated by subtracting the volume of the gastrocnemius muscle before tumour implantation from the volume after tumour implantation (length×width×height). […] Tumour measurements were taken twice weekly using skin calipers, from implantation day to either experimental or humane endpoints.
Metabolite compounds were obtained from Sigma-Aldrich and prepared into metabolite stock solutions by dissolving them into UltraPure™ DNase/RNase-Free Distilled Water (Invitrogen™) with 1.0N NaOH (Sigma). The pH of the stock solutions was adjusted to 7.4-7.6 and determination of the endotoxin level of the solutions was completed through a limulus amebocyte lysate (LAL) test. […] To test the metabolite effects on anti-tumour immunity, 100 μL of the metabolite at 83 mg/kg bodyweight per mouse was administered intraperitoneally every 48 hours for seven doses. […] Three doses of 250 μg of either anti-PD-1 or anti-PD-L1 were administered intraperitoneally post tumour implantation on day 10, 13 and 16. To neutralize CD8 T cell in mice, anti-CD8 (clone 2.43; BioXcell) monoclonal antibody was used. 250 μg of anti-CD8 antibody in PBS per mouse was injected intraperitoneally 7 and 1 day before tumour implantation, followed by administering 100 μg of anti-CD8 in PBS into the mice on day 3, 7, and 10.

NF-κB pathway = experiment: NF-κB activity reporter assay in THP1-Dual cells; assay type: cell-based, human
Description: NF-κB and IRF induction assays were performed using mouse RAW-Dual™ (InvivoGen) and human THP1-Dua™ (InvivoGen) reporter cell lines. The cells were resuspended in freshly prepared test media at a concentration of 1.0×10^6 cells/mL for RAW-Dual™ and 5.0×10^5 cells/mL for THP1-Dual™. 180 μL of cells were seeded per well in a standard 96-well plate and optimized the concentration of several PRR agonists that trigger NF-κB and IRF. To test the metabolite effect on these pathways, 10 μL of the optimized receptor agonist, 10 μL of the 2 mM metabolite solution or vehicle was added to each well, making a final volume of 200 μL. To neutralize IL-1 receptor signalling, anti-IL-1a (clone 7D4, InvivoGen) and anti-IL-1β (clone 4H5, InvivoGen) antibodies were added and IgG1 isotype (clone T8E5, InvivoGen) was used as a control, as per manufacturer's recommendation. NF-κB activity was determined by measuring secreted embryonic alkaline phosphatase (SEAP) levels using QUANTI-Blue™ solution (InvivoGen). After aliquoting 20 μL of cell culture supernatant into 180 μL of QUANTI-Blue™, the conversion of color to blue was monitored and SEAP levels were determined using a SpectraMax i3 from Molecular Devices at 650 nm. To assess IRF induction, secreted lucia luciferase levels were measured in the culture medium using QUANTI-Luc™ solution (InvivoGen). 20 μL of cell culture supernatant was aliquoted into 50 μL of QUANTI-Luc™ solution and the luminescence reading was immediately recorded using the SpectraMax i3.

IRF pathway = assay type: cell-based, human
GSDMD = target: T1, GSDMD (Homo sapiens, UniProt P57764); experiment: Western blot of GSDMD cleavage in THP-1 cells; assay type: cell-based
T1 construct: host or cells: THP1-Dual cells (human monocytic reporter line)
T1 sequence (P57764 1-484): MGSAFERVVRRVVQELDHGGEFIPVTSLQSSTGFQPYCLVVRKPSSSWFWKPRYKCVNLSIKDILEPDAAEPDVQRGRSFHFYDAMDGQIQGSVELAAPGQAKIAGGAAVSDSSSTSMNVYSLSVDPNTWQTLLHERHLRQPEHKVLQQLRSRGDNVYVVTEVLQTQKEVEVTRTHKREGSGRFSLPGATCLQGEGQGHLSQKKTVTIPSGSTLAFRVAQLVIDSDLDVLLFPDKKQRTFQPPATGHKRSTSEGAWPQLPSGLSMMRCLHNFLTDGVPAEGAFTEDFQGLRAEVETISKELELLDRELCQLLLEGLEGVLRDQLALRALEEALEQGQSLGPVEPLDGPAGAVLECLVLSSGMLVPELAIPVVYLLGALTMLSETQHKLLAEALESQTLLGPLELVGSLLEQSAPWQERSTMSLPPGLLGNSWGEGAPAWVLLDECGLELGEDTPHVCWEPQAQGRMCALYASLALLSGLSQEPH
Description: Cells were collected and lysates prepared using total lysis buffer (50 mM Tris-HCl, pH 8.0; 150 mM NaCl; 1% Triton X-100; 1% SDS). The supernatant was obtained by centrifuging at 10,000 RPM for 10 minutes at 4° C. using a benchtop PCR centrifuge. Protein quantification was performed using the Bio-Rad DC Protein Assay Kit (Bio-Rad, NC, USA). Proteins were separated using 12% SDS-PAGE gels and transferred to a PVDF membrane using the Bio-Rad Trans-turbo semi-dry transfer apparatus at 25 V/1 A for 1 hour. The membrane was blocked with Tris-buffered-saline-Tween-20™ (TBST) containing 5% skim milk for 30 minutes at room temperature. The membrane was then probed overnight at 4° C. with rabbit monoclonal recombinant anti-GSDMD antibody (ab210070, Abcam), anti-cleaved N-terminal GSDMD antibody (ab215203, Abcam) and mouse anti-actin monoclonal antibody (MAB1501, MilliporeSigma) for human FL-GSDMD, CL-GSDMD and actin. The next day, the membranes were washed with TBST three times and probed with goat anti-rabbit (1706515, Bio-Rad) or goat anti-mouse (1706516, Bio-Rad) horseradish peroxidase-conjugated IgG for 1 hour at room temperature. The secondary antibodies were diluted in TBST containing 5% (w/v) skim milk at 1:5000 and the membranes washed with TBST before detecting the proteins of interest using the Clarity™ Western ECL Substrate (Bio-Rad) on a Chemidoc-IT Imager (UVP, Upland, CA, USA).

[1] = Maximum tolerable dose and body weight of mice given metabolite intraperitoneally; assay type: in vivo; conditions: 83 mg/kg body weight, given every 48 hours, intraperitoneal
[2] = test system: GSDMD regulated cytokines; experiment: Cytokine level of tumour interstitial fluid of M3-9-M^OVA tumours; assay type: in vivo, mouse
Description: Cells were seeded in a 96-well plate at a density of 0.5-1.0×10^6 cells/well and treated with PRR agonists in combination with or without metabolites. To measure cytokine levels, culture supernatant was collected at specific timepoints. To check cytokine levels of the tumour interstitial fluid, samples were prepared following the protocol, as mentioned by Kim et al (Nat. Commun. 8, (2017)). Cellular IL-1 levels were determined by incubating HEK-Blue™ IL-1β cells ([…]) with the collected culture supernatant and measuring the SEAP levels in the culture medium using QUANTI-Blue™ solution ([…]). Multiplexed quantification of cytokines, chemokines, and growth factors was also conducted by Eve Technologies Corp. (Calgary, Alberta) using the Luminex™ 200 system (Luminex, Austin, TX, USA).

O=C(O)CCc1ccccc1O [Compound I-1, 3-(2-hydroxyphenyl)propanoic acid]
overall survival, treatment initiated seven days after implantation (B16.F10 melanoma tumours; IMDM-CR mice, B16.F10, treatment started 7 days after implantation): still effective | overall survival, combination with anti-PD-L1 vs anti-PD-L1 alone (B16.F10 melanoma tumours; female IMDM-CR mice, B16.F10 tumours, 3,2-HPP i.p. plus anti-PD-L1): further improvement | overall survival / immune surveillance of B16.F10 melanoma (B16.F10 melanoma tumours; female IMDM-CR mice, i.p. treatment from day 1): increased the overall survival | overall survival, treatment initiated seven days after implantation (M3-9-M^OVA tumours; IMDM-CR mice, M3-9-M^OVA, treatment started 7 days after implantation): still effective | immune surveillance of M3-9-M^OVA tumours (overall survival) (M3-9-M^OVA tumours; male IMDM-CR mice, i.p. treatment from day 1 post-implantation): enhance the immune surveillance | overall survival, combination with ABX vs either treatment alone (M3-9-M tumours; female IMDM-CR mice, M3-9-M tumours, ABX plus 3,2-HPP): even higher overall survival | overall survival, combination with anti-PD-1 vs anti-PD-1 alone (M3-9-M tumours; female IMDM-CR mice, M3-9-M tumours, 3,2-HPP i.p. plus anti-PD-1): further improvement | efficacy of treatment after depletion of CD8 T cells (M3-9-M tumours; female IMDM-CR mice, M3-9-M, anti-CD8 neutralizing antibody (clone 2.43)): abrogated the efficacy | immune surveillance of M3-9-M tumours (overall survival) (M3-9-M tumours; female IMDM-CR mice, i.p. treatment from day 1 post-implantation vs vehicle): enhance the immune surveillance | effect on ABX-reduced immune surveillance (M3-9-M tumours; female IMDM-JAX mice on ABX-supplemented drinking water, M3-9-M tumours): counteracted the negative effect of ABX | overall survival (M3-9-M tumours; female IMDM-JAX mice, M3-9-M tumours, i.p. 3,2-HPP): increased the overall survival | response of non-immunogenic M3-9-M tumours to treatment (M3-9-M tumours; male IMDM-CR mice, i.p. treatment from day 1): did not respond | NF-κB pathway activation combined with PRR agonists (NF-κB pathway; LPS or other NF-κB pathway inducers): potentiate | NF-κB pathway activation when treated with LPS (NF-κB pathway; LPS, 16 hours, vs vehicle): potentiates | IRF pathway activation combined with PRR agonists (IRF pathway): potentiate | GSDMD cleavage in the presence of LPS or LPS+NG stimulation (GSDMD): facilitating gasdermin D cleavage | toxicity or weight loss [1]: without toxicity or weight loss | IL-1β release ([2]; M3-9-M^OVA tumours): notable increase | secretion of GSDMD regulated cytokines / cytokine milieu in TME ([2]; male JAX C57BL/6 mice, 14 days, treatment from day 1, listed as 3,2-HPP): impacted the secretion; also recorded: significantly shifts
